Calls of active or inactive are those of the source. The calls are words filed in the database; no cut-off is given here.
Experiments:
Carbonic anhydrase 1 = Carbonic anhydrase 1 (Homo sapiens, UniProt P00915)
Description: Inhibition of human CA1 preincubated for 15 mins by phenol red dye based stopped flow CO2 hydration assay

Carbonic anhydrase 12 = Carbonic anhydrase 12 (Homo sapiens, UniProt O43570)
Description: Inhibition of human CA12 preincubated for 15 mins by phenol red dye based stopped flow CO2 hydration assay

Carbonic anhydrase 9 = Carbonic anhydrase 9 (Homo sapiens, UniProt Q16790)
Description: Inhibition of human CA9 preincubated for 15 mins by phenol red dye based stopped flow CO2 hydration assay

Oryctolagus cuniculus [1] = test: Antiglaucoma activity in New Zealand albino rabbit assessed as reduction in carbomer-induced intraocular pressure administered topically as eye drops measured at 60 to 120 mins post administration by pneumotonometer-analysis; format: functional; details: time 60-120 min
Oryctolagus cuniculus [2] = test: Antiglaucoma activity in New Zealand albino rabbit assessed as reduction in intraocular pressure administered topically as eye drops measured after 4 hrs by pneumotonometer-analysis; format: functional
Oryctolagus cuniculus [3] = test: Antiglaucoma activity in New Zealand albino rabbit assessed as reduction in carbomer-induced intraocular pressure administered topically as eye drops measured at 240 mins post-drug administration by pneumotonometer-analysis; format: functional; details: 4 h
Oryctolagus cuniculus [4] = test: Antiglaucoma activity in New Zealand albino rabbit assessed as reduction in carbomer-induced intraocular pressure administered topically as eye drops measured at 60 mins post-drug administration by pneumotonometer-analysis; format: functional; details: 1 h

Sequence of Carbonic anhydrase 12 (O43570 whole entry): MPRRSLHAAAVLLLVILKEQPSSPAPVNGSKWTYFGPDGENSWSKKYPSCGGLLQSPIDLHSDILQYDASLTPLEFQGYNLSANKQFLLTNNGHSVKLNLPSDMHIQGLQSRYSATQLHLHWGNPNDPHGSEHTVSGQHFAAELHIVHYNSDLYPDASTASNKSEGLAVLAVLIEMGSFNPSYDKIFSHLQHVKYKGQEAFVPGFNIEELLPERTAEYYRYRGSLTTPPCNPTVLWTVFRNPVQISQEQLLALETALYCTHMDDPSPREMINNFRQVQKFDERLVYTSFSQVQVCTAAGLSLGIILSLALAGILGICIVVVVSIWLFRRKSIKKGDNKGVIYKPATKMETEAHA
Sequence of Carbonic anhydrase 1 (P00915 whole entry): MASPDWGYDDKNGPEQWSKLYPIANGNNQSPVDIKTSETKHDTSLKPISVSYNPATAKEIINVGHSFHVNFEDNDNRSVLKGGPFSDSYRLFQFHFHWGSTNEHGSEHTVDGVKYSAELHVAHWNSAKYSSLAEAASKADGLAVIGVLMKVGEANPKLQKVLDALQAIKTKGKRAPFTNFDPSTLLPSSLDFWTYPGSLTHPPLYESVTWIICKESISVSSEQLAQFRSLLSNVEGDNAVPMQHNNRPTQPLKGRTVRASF

`CCC(C)NC(=O)Nc1cccc(S(N)(=O)=O)c1` (stereo not given) showed a Ki (Carbonic anhydrase 1) of 0.0699 µM, a Ki (Carbonic anhydrase 12) of 0.6 µM and a Ki (Carbonic anhydrase 9) of 2.12 µM.

`CC(C)CN(CC(C)C)C(=O)Nc1cccc(S(N)(=O)=O)c1` gave a Ki (Carbonic anhydrase 9) of 1.79 µM.

`COC(=O)CNC(=O)Nc1ccc(S(N)(=O)=O)cc1` gave a Ki (Carbonic anhydrase 9) of 1.92 µM.

`COC(=O)C(CC(C)C)NC(=O)Nc1cccc(S(N)(=O)=O)c1` (stereo not given) showed a Ki (Carbonic anhydrase 1) of 5.28 µM, a Ki (Carbonic anhydrase 12) of 0.589 µM and a Ki (Carbonic anhydrase 9) of 0.839 µM.

Compound `NS(=O)(=O)c1cccc(NC(=O)Nc2ccccc2)c1` has a Ki (Carbonic anhydrase 1) of 0.449 µM, a Ki (Carbonic anhydrase 12) of 0.356 µM and a Ki (Carbonic anhydrase 9) of 1.8 µM.

Work on `CN(CCc1ccccc1)C(=O)Nc1cccc(S(N)(=O)=O)c1` yielded a Ki (Carbonic anhydrase 9) of 1.18 µM.

Compound `NS(=O)(=O)c1cccc(NC(=O)Nc2ccccc2F)c1` has a Ki (Carbonic anhydrase 1) of 0.737 µM, a Ki (Carbonic anhydrase 12) of 0.512 µM and a Ki (Carbonic anhydrase 9) of 1.48 µM.

`NS(=O)(=O)c1ccc(NC(=O)NCC(=O)NCC(=O)O)cc1` was tested, and the Activity (Oryctolagus cuniculus [1]) was “Active”, the Ki (Carbonic anhydrase 1) was 7.57 µM and the Ki (Carbonic anhydrase 12) was 0.426 µM. For the same compound, the Activity (Oryctolagus cuniculus [2]) was “Active”, the Ki (Carbonic anhydrase 9) was 1.57 µM and the Activity (Oryctolagus cuniculus [3]) was 19 mmHg.

In the case of `CN(Cc1ccccc1)C(=O)Nc1cccc(S(N)(=O)=O)c1`, the Activity (Oryctolagus cuniculus [1]) is reported as 11 mmHg, the Activity (Oryctolagus cuniculus [2]) is reported as “Active” and the Ki (Carbonic anhydrase 9) is reported as 1.44 µM.

For `COC(=O)[C@H](Cc1ccccc1)NC(=O)Nc1ccc(S(N)(=O)=O)cc1`, the Ki (Carbonic anhydrase 1) was 0.0623 µM, the Activity (Oryctolagus cuniculus [4]) was 36 mmHg and the Ki (Carbonic anhydrase 12) was 0.0426 µM. The Activity (Oryctolagus cuniculus [2]) was 27 mmHg and the Ki (Carbonic anhydrase 9) was 0.126 µM.

`CCC(C)NC(=O)Nc1ccc(S(N)(=O)=O)cc1` (stereo not given) gave a Ki (Carbonic anhydrase 1) of 0.669 µM, a Ki (Carbonic anhydrase 12) of 0.637 µM and a Ki (Carbonic anhydrase 9) of 0.507 µM.

`NS(=O)(=O)c1cccc(NC(=O)Nc2cccc(C(F)(F)F)c2)c1` was tested, and the Ki (Carbonic anhydrase 1) was 2.06 µM, the Ki (Carbonic anhydrase 12) was 0.49 µM and the Ki (Carbonic anhydrase 9) was 1.6 µM.

Work on `CN(C)C(=O)Nc1ccc(S(N)(=O)=O)cc1` yielded a Ki (Carbonic anhydrase 1) of 0.483 µM, a Ki (Carbonic anhydrase 12) of 0.705 µM and a Ki (Carbonic anhydrase 9) of 1.4 µM.

With `NS(=O)(=O)c1cccc(NC(=O)N2CCCCC2)c1` the Ki (Carbonic anhydrase 1) was 0.178 µM, the Ki (Carbonic anhydrase 12) was 0.278 µM and the Ki (Carbonic anhydrase 9) was 0.541 µM.

`COC(=O)CNC(=O)CNC(=O)Nc1cccc(S(N)(=O)=O)c1` showed a Ki (Carbonic anhydrase 1) of 7.19 µM, a Ki (Carbonic anhydrase 12) of 0.344 µM and a Ki (Carbonic anhydrase 9) of 0.691 µM.

Work on `CC(C)NC(=O)Nc1cccc(S(N)(=O)=O)c1` yielded a Ki (Carbonic anhydrase 12) of 0.613 µM and a Ki (Carbonic anhydrase 9) of 2.17 µM.

`NS(=O)(=O)c1cccc(NC(=O)NCCc2ccccc2)c1` was tested, and the Ki (Carbonic anhydrase 1) was 0.296 µM, the Ki (Carbonic anhydrase 12) was 0.487 µM and the Ki (Carbonic anhydrase 9) was 1.33 µM.

Work on `COC(=O)C(Cc1ccccc1)NC(=O)Nc1cccc(S(N)(=O)=O)c1` (stereo not given) yielded an Activity (Oryctolagus cuniculus [1]) of 16 mmHg, a Ki (Carbonic anhydrase 1) of 0.809 µM and a Ki (Carbonic anhydrase 12) of 0.275 µM. For the same compound, the Activity (Oryctolagus cuniculus [2]) was “Active” and the Ki (Carbonic anhydrase 9) was 0.943 µM.

`CCN(CC)C(=O)Nc1cccc(S(N)(=O)=O)c1` was tested, and the Ki (Carbonic anhydrase 1) was 2.88 µM, the Ki (Carbonic anhydrase 12) was 0.375 µM and the Ki (Carbonic anhydrase 9) was 1.73 µM.

`COC(=O)CC(NC(=O)Nc1cccc(S(N)(=O)=O)c1)C(=O)OC` (stereo not given) gave a Ki (Carbonic anhydrase 1) of 8.38 µM and a Ki (Carbonic anhydrase 9) of 0.86 µM.

Work on `CCN[C@H]1C[C@H](C)S(=O)(=O)c2sc(S(N)(=O)=O)cc21` [DORZOLAMIDE] yielded an Activity (Oryctolagus cuniculus [2]) of 24 mmHg.

`COC(=O)CCC(NC(=O)Nc1ccc(S(N)(=O)=O)cc1)C(=O)OC` (stereo not given) showed a Ki (Carbonic anhydrase 1) of 0.062 µM, a Ki (Carbonic anhydrase 12) of 0.726 µM and a Ki (Carbonic anhydrase 9) of 0.596 µM.

With `COC(=O)C(CCSC)NC(=O)Nc1cccc(S(N)(=O)=O)c1` (stereo not given) the Ki (Carbonic anhydrase 1) was 1.73 µM, the Ki (Carbonic anhydrase 12) was 0.426 µM and the Ki (Carbonic anhydrase 9) was 1.38 µM.

`CCCN(CCC)C(=O)Nc1cccc(S(N)(=O)=O)c1` was tested, and the Ki (Carbonic anhydrase 9) was 2.19 µM.

Work on `CC(C)N(C(=O)Nc1cccc(S(N)(=O)=O)c1)C(C)C` yielded a Ki (Carbonic anhydrase 9) of 2.09 µM.

In the case of `CCCCCCN(CCCCCC)C(=O)Nc1cccc(S(N)(=O)=O)c1`, the Ki (Carbonic anhydrase 9) is reported as 2.11 µM.

In the case of `COC(=O)CNC(=O)Nc1cccc(S(N)(=O)=O)c1`, the Ki (Carbonic anhydrase 1) is reported as 6.07 µM and the Ki (Carbonic anhydrase 9) is reported as 0.825 µM.

In the case of `COC(=O)C(CC(C)C)NC(=O)Nc1ccc(S(N)(=O)=O)cc1` (stereo not given), the Ki (Carbonic anhydrase 1) is reported as 0.226 µM, the Ki (Carbonic anhydrase 12) is reported as 0.586 µM and the Ki (Carbonic anhydrase 9) is reported as 0.937 µM.

`COC(=O)CCCNC(=O)Nc1cccc(S(N)(=O)=O)c1` showed a Ki (Carbonic anhydrase 1) of 8.28 µM, a Ki (Carbonic anhydrase 12) of 0.494 µM and a Ki (Carbonic anhydrase 9) of 0.746 µM.

`CC(C)NC(=O)Nc1ccc(S(N)(=O)=O)cc1` showed a Ki (Carbonic anhydrase 1) of 0.438 µM, a Ki (Carbonic anhydrase 12) of 0.593 µM and a Ki (Carbonic anhydrase 9) of 0.64 µM.

From ChEMBL document CHEMBL5042507, “One-Pot Procedure for the Synthesis of Asymmetric Substituted Ureido Benzene Sulfonamides as Effective Inhibitors of Carbonic Anhydrase Enzymes” (J Med Chem, 2022)
